Results taken from patent publication US12491227B2, “Crila® and EGCG compositions for treatment of fibroids” (Altin Biosciences Corporation, priority 2022, dated 2025).

Assays:
fibroid tumor = conditions: nude mouse model; cited from earlier work
[1] = target: T1, Catechol-O-methyl transferase (COMT) (Homo sapiens, UniProt P21964); conditions: cited from earlier work
T1 sequence (P21964 1-271): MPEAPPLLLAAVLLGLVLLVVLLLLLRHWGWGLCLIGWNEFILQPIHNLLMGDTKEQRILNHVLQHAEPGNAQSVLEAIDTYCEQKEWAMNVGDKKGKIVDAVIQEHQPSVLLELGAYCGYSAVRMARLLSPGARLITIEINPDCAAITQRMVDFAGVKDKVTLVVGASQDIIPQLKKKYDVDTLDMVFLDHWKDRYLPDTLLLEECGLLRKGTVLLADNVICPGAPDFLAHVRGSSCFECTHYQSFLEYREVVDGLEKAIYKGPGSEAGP

TGF-β3 = conditions: human fibroid cells; cited from earlier work
BMP2 gene = conditions: EGCG-treated human fibroid cells; cited from earlier work
[2] = system: Human uterine leiomyoma (HuLM) cells; test: MTT cell proliferation / viability assay in HuLM cells; format: cell-based; conditions: EGCG alone
Method: Effect of Crila® or a Crila® composition (Table 1) and/or EGCG on the Uterine Fibroid Growth: In one study, we used Human Leiomyoma (HuLM) Cells in our initial evaluation of Crila® and/or EGCG treatment. Crila®, used alone or in combination with EGCG, were evaluated for their ability to inhibit the proliferation of HuLM cells in an experimental approach as described below. Similarly, the Crila® compositions are evaluated for their ability to inhibit the proliferation of HuLM cells in an experimental approach as described below. Crila® and/or EGCG were analyzed at the various concentrations and time points specified. […] Thereafter, the extract was sterile filtered through 0.22 μm PES filter and stored at room temperature until further use. EGCG was dissolved in DMSO to make a 100 mM stock solution or in dH2O to make 10 mM stock solution. Cell proliferation assay was performed by dimethylthiazolyl diphenyltetrazolium bromide (MTT) assay. Human uterine leiomyoma (HuLM) cells were cultured in DMEM/F12 containing 10% fetal bovine serum. […] Samples were measured (from the treated wells and control wells) after 1 to 2 days, 3 days, 5 days and 7 days. […] Relative cell viability was determined by using the MTT assay. […] Absorbance was measured in Varioskan Lux microplate reader (ThermoFisher) at 570 nm. […]

## O=C(O[C@@H]1Cc2c(O)cc(O)cc2O[C@@H]1c1cc(O)c(O)c(O)c1)c1cc(O)c(O)c(O)c1 [EGCG, epigallocatechin gallate]
Fibroid tumor
  fibroid tumor formation in vivo: inhibiting fibroid tumor formation
[1]
  COMT inhibitor effect: potent COMT inhibitor effect
TGF-β3
  TGF-β3 production: significantly decreased
BMP2 gene
  increase in the expression of the BMP2 gene versus untreated control: 14 fold
[2]; after 5 days treatment
  concentration from which HuLM cells viability is effectively reduced: ≥ 50 µM
[2]; after 7 days treatment
  concentration from which HuLM cells viability is effectively reduced: ≥ 25 µM
